Converted amounts (≈) assume the structure as drawn.
Assays:
Format in all cases: functional
NCI-H460 = test: Growth inhibition of human NCI-H460 cells at 10^-5 M incubated for 48 hrs by sulforhodamine B assay relative to control; conditions: NCI-H460, 48 h, read-out: GI
MDA-MB-435 = test: Growth inhibition of human MDA-MB-435 cells at 10^-5 M incubated for 48 hrs by sulforhodamine B assay relative to control; conditions: MDA-MB-435, 48 h, read-out: GI
Malme-3M = test: Growth inhibition of human MALME-3M cells at 10^-5 M incubated for 48 hrs by sulforhodamine B assay relative to control; conditions: read-out: GI
SK-OV-3 = test: Growth inhibition of human SKOV3 cells at 10^-5 M incubated for 48 hrs by sulforhodamine B assay relative to control; conditions: SK-OV-3, 48 h, read-out: GI
A549 = test: Growth inhibition of human A549/ATCC cells at 10^-5 M incubated for 48 hrs by sulforhodamine B assay relative to control; conditions: A549, 48 h, read-out: GI
T47D = test: Growth inhibition of human T47D cells at 10^-5 M incubated for 48 hrs by sulforhodamine B assay relative to control; conditions: read-out: GI
KM12 = test: Growth inhibition of human KM12 cells at 10^-5 M incubated for 48 hrs by sulforhodamine B assay relative to control; conditions: KM12, 48 h, read-out: GI
HCC 2998 = test: Growth inhibition of human HCC2998 cells at 10^-5 M incubated for 48 hrs by sulforhodamine B assay relative to control; conditions: HCC 2998, 48 h, read-out: GI
LOX IMVI = test: Growth inhibition of human LOXIMVI cells at 10^-5 M incubated for 48 hrs by sulforhodamine B assay relative to control; conditions: read-out: GI
SN12C = test: Growth inhibition of human SN12C cells at 10^-5 M incubated for 48 hrs by sulforhodamine B assay relative to control; conditions: read-out: GI
MOLT-4 = test: Growth inhibition of human MOLT4 cells at 10^-5 M incubated for 48 hrs by sulforhodamine B assay relative to control; conditions: MOLT-4, 48 h, read-out: GI
SR = test: Growth inhibition of human SR cells at 10^-5 M incubated for 48 hrs by sulforhodamine B assay relative to control; conditions: read-out: GI
SF-295 = test: Growth inhibition of human SF295 cells at 10^-5 M incubated for 48 hrs by sulforhodamine B assay relative to control; conditions: SF-295, 48 h, read-out: GI
Aspergillus fumigatus = test: Antifungal activity against Aspergillus fumigatus after 24 hrs by serial dilution method
ACHN = test: Growth inhibition of human ACHN cells at 10^-5 M incubated for 48 hrs by sulforhodamine B assay relative to control; conditions: read-out: GI
HCT-15 = test: Growth inhibition of human HCT15 cells at 10^-5 M incubated for 48 hrs by sulforhodamine B assay relative to control; conditions: HCT-15, 48 h, read-out: GI
SK-MEL-2 = test: Growth inhibition of human SK-MEL-2 cells at 10^-5 M incubated for 48 hrs by sulforhodamine B assay relative to control; conditions: SK-MEL-2, 48 h, read-out: GI
MDA-MB-231 = test: Growth inhibition of human MDA-MB-231/ATCC cells at 10^-5 M incubated for 48 hrs by sulforhodamine B assay relative to control; conditions: MDA-MB-231, 48 h, read-out: GI
TK-10 = test: Growth inhibition of human TK10 cells at 10^-5 M incubated for 48 hrs by sulforhodamine B assay relative to control; conditions: TK-10, 48 h, read-out: GI
Candida albicans [1] = test: Antifungal activity against Candida albicans at 100 ug/ml by disc diffusion method; conditions: read-out: IZ
HL-60(TB) = test: Growth inhibition of human HL-60(TB) cells at 10^-5 M incubated for 48 hrs by sulforhodamine B assay relative to control; conditions: HL-60, 48 h, read-out: GI
UACC-257 = test: Growth inhibition of human UACC257 cells at 10^-5 M incubated for 48 hrs by sulforhodamine B assay relative to control; conditions: UACC-257, 48 h, read-out: GI
SK-MEL-5 = test: Growth inhibition of human SK-MEL-5 cells at 10^-5 M incubated for 48 hrs by sulforhodamine B assay relative to control; conditions: SK-MEL-5, 48 h, read-out: GI
NCI-H522 = test: Growth inhibition of human NCI-H522 cells at 10^-5 M incubated for 48 hrs by sulforhodamine B assay relative to control; conditions: NCI-H522, 48 h, read-out: GI
RXF 393 = test: Growth inhibition of human RXF393 cells at 10^-5 M incubated for 48 hrs by sulforhodamine B assay relative to control; conditions: RXF 393, 48 h, read-out: GI
UACC-62 = test: Growth inhibition of human UACC62 cells at 10^-5 M incubated for 48 hrs by sulforhodamine B assay relative to control; conditions: UACC-62, 48 h, read-out: GI
M14 = test: Growth inhibition of human M14 cells at 10^-5 M incubated for 48 hrs by sulforhodamine B assay relative to control; conditions: M14, 48 h, read-out: GI
SW-620 = test: Growth inhibition of human SW620 cells at 10^-5 M incubated for 48 hrs by sulforhodamine B assay relative to control; conditions: SW-620, 48 h, read-out: GI
OVCAR-8 = test: Growth inhibition of human OVCAR8 cells at 10^-5 M incubated for 48 hrs by sulforhodamine B assay relative to control; conditions: OVCAR-8, 48 h, read-out: GI
Candida albicans [2] = test: Antifungal activity against Candida albicans after 24 hrs by serial dilution method
BT-549 = test: Growth inhibition of human BT549 cells at 10^-5 M incubated for 48 hrs by sulforhodamine B assay relative to control; conditions: BT-549, 48 h, read-out: GI
HCT-116 = test: Growth inhibition of human HCT116 cells at 10^-5 M incubated for 48 hrs by sulforhodamine B assay relative to control; conditions: HCT-116, 48 h, read-out: GI
U-251 = test: Growth inhibition of human U251 cells at 10^-5 M incubated for 48 hrs by sulforhodamine B assay relative to control; conditions: U-251, 48 h, read-out: GI
EKVX = test: Growth inhibition of human EKVX cells at 10^-5 M incubated for 48 hrs by sulforhodamine B assay relative to control; conditions: read-out: GI
SF-268 = test: Growth inhibition of human SF268 cells at 10^-5 M incubated for 48 hrs by sulforhodamine B assay relative to control; conditions: SF-268, 48 h, read-out: GI
NCI-H23 = test: Growth inhibition of human NCI-H23 cells at 10^-5 M incubated for 48 hrs by sulforhodamine B assay relative to control; conditions: NCI-H23, 48 h, read-out: GI
CAKI-1 = test: Growth inhibition of human Caki1 cells at 10^-5 M incubated for 48 hrs by sulforhodamine B assay relative to control; conditions: CAKI-1, 48 h, read-out: GI
SNB-75 = test: Growth inhibition of human SNB75 cells at 10^-5 M incubated for 48 hrs by sulforhodamine B assay relative to control; conditions: SNB-75, 48 h, read-out: GI
NCI-H226 = test: Growth inhibition of human NCI-H226 cells at 10^-5 M incubated for 48 hrs by sulforhodamine B assay relative to control; conditions: NCI-H226, 48 h, read-out: GI
COLO 205 = test: Growth inhibition of human COLO205 cells at 10^-5 M incubated for 48 hrs by sulforhodamine B assay relative to control; conditions: COLO 205, 48 h, read-out: GI
IGROV-1 = test: Growth inhibition of human IGROV1 cells at 10^-5 M incubated for 48 hrs by sulforhodamine B assay relative to control; conditions: IGROV-1, 48 h, read-out: GI
UO-31 = test: Growth inhibition of human UO31 cells at 10^-5 M incubated for 48 hrs by sulforhodamine B assay relative to control; conditions: UO-31, 48 h, read-out: GI
SF-539 = test: Growth inhibition of human SF539 cells at 10^-5 M incubated for 48 hrs by sulforhodamine B assay relative to control; conditions: SF-539, 48 h, read-out: GI
SNB-19 = test: Growth inhibition of human SNB19 cells at 10^-5 M incubated for 48 hrs by sulforhodamine B assay relative to control; conditions: SNB-19, 48 h, read-out: GI

Q: Which inhibition of growth at 10 µM (NCI-H460) does the source give for `Clc1nc2ccccc2cc1Cn1nnc(Cc2ccccc2)n1` here?
A: 25.7%

Q: What about the inhibition of growth at 10 µM (MDA-MB-435) of the same compound?
A: 34.7%

Q: And the inhibition of growth at 10 µM (Malme-3M)?
A: 34.4%

Q: And the inhibition of growth at 10 µM (SK-OV-3)?
A: 42.6%

Q: What about the inhibition of growth at 10 µM (A549) of the same compound?
A: 46.1%

Q: What about the inhibition of growth at 10 µM (T47D) of the same compound?
A: 73.9%

Q: And the inhibition of growth at 10 µM (KM12)?
A: 33.7%

Q: And the inhibition of growth at 10 µM (HCC 2998)?
A: 18.7%

Q: What about the inhibition of growth at 10 µM (LOX IMVI) of the same compound?
A: 46.4%

Q: What about the inhibition of growth at 10 µM (SN12C) of the same compound?
A: 29.7%

Q: And the inhibition of growth at 10 µM (MOLT-4)?
A: 56.9%

Q: What about the inhibition of growth at 10 µM (SR) of the same compound?
A: 63%

Q: What about the inhibition of growth at 10 µM (SF-295) of the same compound?
A: 52.4%

Q: And the MIC (Aspergillus fumigatus)?
A: 50 µg/mL (≈ 149 µM)

Q: What about the inhibition of growth at 10 µM (ACHN) of the same compound?
A: 47.8%

Q: And the inhibition of growth at 10 µM (HCT-15)?
A: 35%

Q: And the inhibition of growth at 10 µM (SK-MEL-2)?
A: 41.2%

Q: And the inhibition of growth at 10 µM (MDA-MB-231)?
A: 47%

Q: What about the inhibition of growth at 10 µM (TK-10) of the same compound?
A: 39.1%

Q: And the zone of inhibition at 100 µg/mL (Candida albicans [1])?
A: 10 mm

Q: What about the inhibition of growth at 10 µM (HL-60(TB)) of the same compound?
A: 12.1%

Q: And the inhibition of growth at 10 µM (UACC-257)?
A: 46.4%

Q: And the inhibition of growth at 10 µM (SK-MEL-5)?
A: 99.3%

Q: What about the inhibition of growth at 10 µM (NCI-H522) of the same compound?
A: 57.9%

Q: What about the inhibition of growth at 10 µM (RXF 393) of the same compound?
A: 16.1%

Q: And the inhibition of growth at 10 µM (UACC-62)?
A: 48.3%

Q: And the inhibition of growth at 10 µM (M14)?
A: 26.4%

Q: And the inhibition of growth at 10 µM (SW-620)?
A: 13.4%

Q: And the inhibition of growth at 10 µM (OVCAR-8)?
A: 28.4%

Q: What about the MIC (Candida albicans [2]) of the same compound?
A: 25 µg/mL (≈ 74.4 µM)

Q: And the inhibition of growth at 10 µM (BT-549)?
A: 61.1%

Q: What about the inhibition of growth at 10 µM (HCT-116) of the same compound?
A: 64.9%

Q: And the inhibition of growth at 10 µM (U-251)?
A: 23.7%

Q: And the inhibition of growth at 10 µM (EKVX)?
A: 63.9%

Q: And the inhibition of growth at 10 µM (SF-268)?
A: 34.3%

Q: What about the inhibition of growth at 10 µM (NCI-H23) of the same compound?
A: 54.5%

Q: And the inhibition of growth at 10 µM (CAKI-1)?
A: 59.5%

Q: What about the inhibition of growth at 10 µM (SNB-75) of the same compound?
A: 44.6%

Q: What about the inhibition of growth at 10 µM (NCI-H226) of the same compound?
A: 41.8%

Q: And the inhibition of growth at 10 µM (COLO 205)?
A: 17.3%

Q: What about the inhibition of growth at 10 µM (IGROV-1) of the same compound?
A: 49.1%

Q: And the inhibition of growth at 10 µM (UO-31)?
A: 181%

Q: What about the inhibition of growth at 10 µM (SF-539) of the same compound?
A: 18.8%

Q: And the inhibition of growth at 10 µM (SNB-19)?
A: 10.2%

— ChEMBL document CHEMBL4004849, “Tetrazolylmethyl quinolines: Design, docking studies, synthesis, anticancer and antifungal analyses” (2017)
